Each structure is given as a SMILES string.

Holding throughout (format): cell-based
The target in test [1] is T1, Neuronal acetylcholine receptor; alpha3/beta4 (Homo sapiens, UniProt P30926+P32297). The test can be described thus: Antagonist activity at alpha3beta4 nAChR (unknown origin) expressed in Xenopus laevis oocytes assessed as inhibition of Ach-induced channel activation at -100 mV holding potential treated for 1 min by two electrode voltage-clamp assay.
Test [2] has as its target T2, Neuronal acetylcholine receptor; alpha4/beta2 (Homo sapiens, UniProt P17787+P43681). The test can be described thus: Antagonist activity at alpha4beta2 nAChR (unknown origin) expressed in Xenopus laevis oocytes assessed as inhibition of Ach-induced channel activation at -100 mV holding potential treated for 1 min by two electrode voltage-clamp assay. In general terms: Two-electrode voltage clamp holds a large cell at a set potential and records current.

Test [3] concerns the target T1, Neuronal acetylcholine receptor; alpha3/beta4. The test can be described thus: Antagonist activity at alpha3beta4 nAChR (unknown origin) expressed in Xenopus laevis oocytes assessed as inhibition of Ach-induced channel activation at -100 mV holding potential treated for 1 min by two electrode voltage-clamp assay relative to PhTX-343 IC50.
Test [4] deals with T2, Neuronal acetylcholine receptor; alpha4/beta2. Description: Antagonist activity at alpha4beta2 nAChR (unknown origin) expressed in Xenopus laevis oocytes assessed as inhibition of Ach-induced channel activation at -100 mV holding potential treated for 1 min by two electrode voltage-clamp assay relative to PhTX-343 IC50.
The species named for a further test is Homo sapiens. Description: Selectivity ratio of IC50 for alpha4beta2 nAChR (unknown origin) expressed in Xenopus laevis oocytes to IC50 for alpha3beta4 nAChR (unknown origin) expressed in Xenopus laevis oocytes.

T2 sequence (P17787 whole entry): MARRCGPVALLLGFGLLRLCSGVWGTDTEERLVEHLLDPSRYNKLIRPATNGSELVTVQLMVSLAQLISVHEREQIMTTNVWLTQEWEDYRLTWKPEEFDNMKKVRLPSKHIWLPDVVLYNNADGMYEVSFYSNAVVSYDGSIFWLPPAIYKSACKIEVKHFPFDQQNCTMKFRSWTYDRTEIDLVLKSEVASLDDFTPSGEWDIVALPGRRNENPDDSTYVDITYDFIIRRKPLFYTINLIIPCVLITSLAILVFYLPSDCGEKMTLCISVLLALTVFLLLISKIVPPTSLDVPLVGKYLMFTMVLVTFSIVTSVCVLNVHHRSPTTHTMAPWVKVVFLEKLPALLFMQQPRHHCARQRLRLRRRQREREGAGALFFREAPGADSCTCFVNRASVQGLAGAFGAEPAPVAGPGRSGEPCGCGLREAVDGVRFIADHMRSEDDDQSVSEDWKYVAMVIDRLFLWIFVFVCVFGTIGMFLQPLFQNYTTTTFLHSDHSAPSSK
T2 sequence (P43681 whole entry): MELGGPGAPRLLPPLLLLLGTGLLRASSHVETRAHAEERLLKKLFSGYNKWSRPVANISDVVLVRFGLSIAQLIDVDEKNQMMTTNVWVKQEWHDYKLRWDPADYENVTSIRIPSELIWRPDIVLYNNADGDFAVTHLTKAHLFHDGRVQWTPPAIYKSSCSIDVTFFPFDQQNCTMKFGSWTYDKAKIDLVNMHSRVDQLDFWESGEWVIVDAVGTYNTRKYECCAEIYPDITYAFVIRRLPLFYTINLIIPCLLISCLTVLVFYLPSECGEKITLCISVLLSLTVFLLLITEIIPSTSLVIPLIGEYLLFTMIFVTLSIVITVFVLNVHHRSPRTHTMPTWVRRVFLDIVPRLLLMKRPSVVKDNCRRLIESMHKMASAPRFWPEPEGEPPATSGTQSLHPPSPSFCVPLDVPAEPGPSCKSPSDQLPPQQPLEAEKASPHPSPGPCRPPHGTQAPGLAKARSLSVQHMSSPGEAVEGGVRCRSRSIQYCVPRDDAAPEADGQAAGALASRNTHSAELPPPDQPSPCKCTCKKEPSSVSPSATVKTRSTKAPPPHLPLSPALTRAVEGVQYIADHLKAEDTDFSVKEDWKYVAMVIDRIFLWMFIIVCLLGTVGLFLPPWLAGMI
T1 sequence (P30926 whole entry): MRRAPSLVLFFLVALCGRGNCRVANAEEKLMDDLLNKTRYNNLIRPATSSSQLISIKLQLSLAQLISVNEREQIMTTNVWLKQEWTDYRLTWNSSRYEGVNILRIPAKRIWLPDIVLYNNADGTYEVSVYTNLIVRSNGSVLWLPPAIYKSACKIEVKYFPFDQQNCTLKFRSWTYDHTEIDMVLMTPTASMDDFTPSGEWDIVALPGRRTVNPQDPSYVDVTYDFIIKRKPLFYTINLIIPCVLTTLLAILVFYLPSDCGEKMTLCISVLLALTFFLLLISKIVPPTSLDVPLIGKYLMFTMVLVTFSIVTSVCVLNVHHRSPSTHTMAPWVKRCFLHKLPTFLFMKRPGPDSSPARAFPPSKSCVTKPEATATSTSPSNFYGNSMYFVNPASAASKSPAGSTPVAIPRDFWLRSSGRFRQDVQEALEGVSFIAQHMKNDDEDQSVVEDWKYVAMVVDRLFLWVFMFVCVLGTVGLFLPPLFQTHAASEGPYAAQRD
T1 sequence (P32297 whole entry): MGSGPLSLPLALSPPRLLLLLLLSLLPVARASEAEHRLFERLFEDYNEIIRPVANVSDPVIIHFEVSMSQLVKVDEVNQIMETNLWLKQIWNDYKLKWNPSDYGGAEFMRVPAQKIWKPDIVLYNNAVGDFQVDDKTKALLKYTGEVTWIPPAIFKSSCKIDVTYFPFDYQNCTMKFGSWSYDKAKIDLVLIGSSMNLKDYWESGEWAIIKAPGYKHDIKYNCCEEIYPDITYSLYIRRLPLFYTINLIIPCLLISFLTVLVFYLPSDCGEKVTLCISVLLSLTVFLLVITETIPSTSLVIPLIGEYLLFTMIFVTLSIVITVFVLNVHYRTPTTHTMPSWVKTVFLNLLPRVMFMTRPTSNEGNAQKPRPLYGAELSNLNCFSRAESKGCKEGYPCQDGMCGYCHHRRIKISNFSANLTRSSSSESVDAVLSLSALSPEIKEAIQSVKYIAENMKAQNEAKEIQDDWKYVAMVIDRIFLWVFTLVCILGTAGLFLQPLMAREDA

Usually IC50 stands for the midpoint of a concentration-inhibition curve. Regarding `NCCCNCCCCNCCCNC(=O)[C@H](CC1CCCCC1)NC(=O)/C=C/c1ccccc1`, the IC50 in test [1] stood at 0.35 nM; in test [2] it was 12.1 nM. The Ratio IC50 in test [3] came to 21.9; in test [4] it was 6.6; in the test filed under Homo sapiens it was 34.6.

Consider `NCCCNCCCCNCCCNC(=O)[C@H](CC1CCCCC1)NC(=O)C1CCCCCC1`, for which the IC50 in test [1] was determined as 0.55 nM; in test [2], 28.2 nM. In addition, the Ratio IC50 in test [3] was found to be 13.9; in test [4], 2.8; in the test listed under Homo sapiens, 51.3.

`NCCCNCCCCNCCCNC(=O)[C@H](CC1CCCCC1)NC(=O)C1CCC1`: the IC50 in test [1] turned out to be 1.07 nM; in test [2] it was 20.8 nM. Further, the values for the Ratio IC50 (in test [3]; in test [4]; in the test listed under Homo sapiens) were 7.1, 3.9 and 19.4, respectively.

Consider `NCCCNCCCCNCCCNC(=O)[C@H](Cc1ccc(O)cc1)NC(=O)C1CCCC1`, for which the values for the IC50 in test [1] and in test [2] were 0.57 nM and 22.5 nM, respectively. Also, the values for the Ratio IC50 (in test [3]; in test [4]; in the test filed under Homo sapiens) were 13.4, 3.6 and 39.5, respectively.

Regarding `CCCC(=O)N[C@@H](Cc1ccc(O)cc1)C(=O)NCCCNC[C@@H]1C[C@H]1CNCCCN`, the IC50 in test [1] turned out to be 0.92 nM; in test [2], 44.3 nM. The Ratio IC50 in test [3] stood at 8.3; in test [4], 1.8; in the test filed under Homo sapiens, 48.2.

For the compound `NCCCNCCCCNCCCNC(=O)[C@H](CC1CCCCC1)NC(=O)Cc1cccc2ccccc12`, the IC50 worked out at 0.16 nM in test [1] and 14.6 nM in test [2]. Also, the Ratio IC50 was 47.8 in test [3], 5.5 in test [4] and 91.3 in the test filed under Homo sapiens.

Take `NCCCNCCCCNCCCNC(=O)[C@H](CC1CCCCC1)NC(=O)CC1CC2CCC1C2` (stereo partly drawn): the IC50 stood at 0.95 nM in test [1] and 25.6 nM in test [2]. Further, the Ratio IC50 worked out at 8.1 in test [3], 3.1 in test [4] and 26.9 in the test listed under Homo sapiens.

Regarding `CCCC(=O)N[C@@H](CCc1ccccc1)C(=O)NCCCNCCCCNCCCN`, the IC50 in test [1] worked out at 1.74 nM; in test [2] it was 20.8 nM. In addition, the Ratio IC50 in test [3] amounted to 4.4; in test [4] it was 3.9; in the test listed under Homo sapiens, 12.

For `CCCC(=O)N[C@@H](Cc1ccccc1)C(=O)NCCCNCCCCNCCCN`, the IC50 in test [1] came out at 0.93 nM; in test [2], 27.8 nM. The Ratio IC50 in test [3] was found to be 8.2; in test [4], 2.9; in the test listed under Homo sapiens it was 29.9.

`NCCCNCCCCNCCCNC(=O)[C@H](CC1CCCCC1)NC(=O)c1ccc(-c2ccccc2)cc1`: the results for the half-maximal inhibitory concentration (IC50) in test [1] and in test [2] were 2.83 nM and 25.8 nM, respectively. For the same compound, the Ratio IC50 in test [3] was found to be 2.7; in test [4] it was 3.1; in the test filed under Homo sapiens, 9.1.

Turning to `NCCCNCCCCNCCCNC(=O)[C@H](CC1CCCCC1)NC(=O)C1CCCCC1`, the IC50 in test [1] stood at 2.19 nM; in test [2], 31.4 nM. The Ratio IC50 in test [3] is 3.5; in test [4], 2.6; in the test filed under Homo sapiens it was 14.3.

Turning to `CCCC(=O)N[C@@H](CC1CCCCC1)C(=O)NCCCNCCCCNCCCN`, the 50% inhibitory concentration (IC50) in test [1] came to 2.62 nM; in test [2], 2.58 nM. Also, the Ratio IC50 in test [3] turned out to be 2.9; in test [4], 31.1; in the test filed under Homo sapiens it was 1.

On to `CCCC(=O)N[C@@H](Cc1ccc(O)cc1)C(=O)NCCCNC[C@H]1C[C@H]1CNCCCN`, for which the IC50 came out at 1.44 nM in test [1] and 47.4 nM in test [2]. Further, the Ratio IC50 in test [3] was found to be 5.3; in test [4], 1.7; in the test listed under Homo sapiens, 32.9.

Consider `NCCCNCCCCNCCCNC(=O)[C@H](Cc1ccc(O)cc1)NC(=O)C1CCCCC1`, for which the half-inhibitory concentration (IC50) came to 0.46 nM in test [1] and 36.6 nM in test [2]. The results for the Ratio IC50 (in test [3]; in test [4]; in the test listed under Homo sapiens) were 16.6, 2.2 and 79.6, respectively.

Take `NCCCNCCCCNCCCNC(=O)[C@H](CC1CCCCC1)NC(=O)C1CCCC1`: the values for the IC50 in test [1] and in test [2] were 0.65 nM and 5.43 nM, respectively. In addition, the Ratio IC50 is 11.8 in test [3], 14.8 in test [4] and 8.4 in the test listed under Homo sapiens.

Consider `NCCCNCCCCNCCCNC(=O)[C@H](CC1CCCCC1)NC(=O)c1ccccc1`, for which the IC50 in test [1] was found to be 0.37 nM; in test [2], 21.4 nM. Besides, the Ratio IC50 came out at 20.7 in test [3], 3.7 in test [4] and 57.8 in the test listed under Homo sapiens.

Consider `CCCC(=O)N[C@@H](Cc1ccc(O)cc1)C(=O)NCCCNCCCCNCCCN` [PHILANTHOTOXIN 343], for which the results for the IC50 in test [1] and in test [2] were 7.65 nM and 80.2 nM, respectively. Also, the Ratio IC50 in the test listed under Homo sapiens amounted to 10.5.

For the compound `NCCCNCCCCNCCCNC(=O)[C@H](CC1CCCCC1)NC(=O)C1CC1`, the IC50 in test [1] was 2.63 nM; in test [2] it was 112 nM. For the same compound, the Ratio IC50 in test [3] stood at 2.9; in test [4] it was 0.7; in the test filed under Homo sapiens, 42.6.

Source of the values: ChEMBL document CHEMBL4359833, “Philanthotoxin Analogues That Selectively Inhibit Ganglionic Nicotinic Acetylcholine Receptors with Exceptional Potency” (J Med Chem, 2019).
